# According to article PMC5006645 (EBioMedicine, 2016):
# What was measured:
# S273pPPARγ = assay: Inhibition of S273 phosphorylation of PPARγ; type: biochemical
# [1] = Plasma levels at the end of experiments; type: in vivo, C57BL/6 mice; conditions: for concentration at 4 days: C57BL/6, mouse, plasma, 5 mg/kg/d
# [2] = test system: bone and marrow fat of DIO C57BL/6 mice; type: in vivo
# cortical bone = assay: Cortical tissue mineral density; type: in vivo, C57BL/6 mice; conditions: mouse model not stated; control 954.6 ± 17.6
# marrow MSCs = assay: Marrow MSC cultures: adipocyte markers and CFU-OB osteoblast differentiation; type: cell-based; conditions: marrow MSC culture, 6 days; 10 μM SR10171 or 1 μM rosiglitazone
# [3] = test system: non-adherent bone marrow cells; assay: Osteoclastogenesis assay from non-adherent bone marrow cells; type: cell-based; conditions: ex vivo; 10 μM SR10171 or 1 μM rosiglitazone; M-CSF and RANKL
# [4] = Glucose tolerance test in DIO mice; type: in vivo, C57BL/6 mice; conditions: DIO animals, 25 mg/kg/d, 4 weeks
# [5] = Body weight of treated mice; type: in vivo, C57BL/6 mice
# [6] = test system: osteocytes from femora cortical bone; assay: Gene expression in osteocytes freshly isolated from femora of treated animals; type: in vivo, C57BL/6 mice
# [7] = test system: trabecular and cortical bone of lean C57BL/6 mice; assay: Lean mice experiment: bone mCT and histomorphometry; conditions: for mineral apposition rate (MAR) and bone formation rate (BFR): proximal tibia
# PPARγ = type: cell-based; conditions: AD2 cells; 1 μM rosiglitazone or 5 μM SR10171 1 h, then TNF-α 50 ng/ml 1 h
# [8] = test system: TCF/LIF/β-catenin complex; assay: Top-Flash luciferase reporter in U33/γ2 cells; type: cell-based; conditions: 72 h
# PPARα = target: T1, PPARα (Homo sapiens, UniProt Q07869)
# T1 sequence (Q07869 200-468 limits assumed): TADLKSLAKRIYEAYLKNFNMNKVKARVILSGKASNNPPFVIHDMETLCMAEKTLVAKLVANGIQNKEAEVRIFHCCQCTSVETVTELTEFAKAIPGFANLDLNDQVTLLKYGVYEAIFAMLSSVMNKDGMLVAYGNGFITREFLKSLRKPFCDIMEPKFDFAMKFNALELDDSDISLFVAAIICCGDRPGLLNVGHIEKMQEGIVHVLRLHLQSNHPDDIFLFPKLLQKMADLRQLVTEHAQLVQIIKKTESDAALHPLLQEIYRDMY
# [9] = test system: trabecular and cortical bone of lean C57BL/6 mice; conditions: 15 mg/kg/d, 8 weeks; previously established, ref not given; cited from earlier work
# [10] = midshaft tibia, calcein labeling
structure (smiles),measurement,setting,value
"Cc1c(C)n(Cc2cccc(OC(C)(C)C(=O)O)c2)c2ccc(C(=O)N[C@@H](C)c3ccc(C(C)(C)C)cc3)cc12 [SR10171, (S)-2-(3-((5-((1-(4-(tert-butyl)phenyl)ethyl)carbamoyl)-2,3-dimethyl-1H-indol-1-yl)methyl)phenoxy)-2-methylpropanoic acid]","S273 phosphorylation blocking activity, lower than rosiglitazone",S273pPPARγ; relative to rosiglitazone,50%
same,concentration at 4 days,[1],4010 nM
same,"retention levels in plasma, higher than rosiglitazone",[1]; animals treated for 4 days,2.5 fold
same,decrease in marrow fat volume vs no drug control,"[2]; 25 mg/kg/d, 4 weeks, tibia",~5 fold
same,"periosteal labeling, times larger than control",[2]; [10],9 fold
same,cortical tissue mineral density (TMD),cortical bone,978.6 ± 10.4 mg HA/cm^3
same,basal expression of Fabp4 and Adipoq,marrow MSCs,decreased
same,number of multi-nucleated TRAP-positive osteoclast-like cells,[3],increased
same,glucose tolerance,[4],normalized
same,body weight,"[5]; DIO mice maintained on HFD, 25 mg/kg/d, 4 weeks",decreased
same,body weight,"[5]; lean animals, 15 mg/kg/d, 8 weeks",no impact
same,Dkk1 expression in osteocytes of treated animals,[6],decreased
same,Sost expression in osteocytes of treated animals,[6],decreased
same,"Trabecular bone mass in proximal tibia, increase vs non-treated controls","[7]; 15 mg/kg/d, 8 weeks",26%
same,decrease of number of marrow adipocytes,"[7]; 15 mg/kg/d, 8 weeks",50%
same,"periosteal labeling, times larger than control",[7]; [10],1.5 fold
same,mineral apposition rate (MAR) and bone formation rate (BFR),"[7]; 15 mg/kg/d, 8 weeks",increase
"CN(CCOc1ccc(CC2SC(=O)NC2=O)cc1)c1ccccn1 (racemic) [Rosiglitazone, (RS)-5-[4-(2-[methyl(pyridin-2-yl)amino]ethoxy)benzyl]thiazolidine-2,4-dione, reference compound]",% inhibition S273pPPARγ (20 μM),S273pPPARγ; 20 μM,100%
same,concentration at 4 days,[1],1670 nM
same,cortical tissue mineral density (TMD),cortical bone,954.5 ± 17.9 mg HA/cm^3
same,phosphorylation of S112 of PPARγ,PPARγ,alters
same,phosphorylation of S273 of PPARγ,PPARγ,block
same,basal expression of Fabp4 and Adipoq,marrow MSCs,increased
same,number of multi-nucleated TRAP-positive osteoclast-like cells,[3],increased
same,β-catenin transcriptional activity (Top-Flash),[8],decreased
same,glucose tolerance,[4],normalized
same,Dkk1 expression in osteocytes of treated animals,[6],increased
same,Sost expression in osteocytes of treated animals,[6],unaffected
same,EC50 PPARα GAL-4,PPARα,No activity
same,decrease of bone mass,[9],20%
same,increase of adipocyte number,"[7]; 15 mg/kg/d, 8 weeks",5 fold
same,trabecular bone mass,"[7]; 15 mg/kg/d, 8 weeks",decreased
same,mineral apposition rate (MAR) and bone formation rate (BFR),"[7]; 15 mg/kg/d, 8 weeks",attenuated
